Experimental data from patent publication US12083165B2, “Thymosin alpha 1 for use in treatment of cystic fibrosis” (SciClone Pharmaceuticals International (SG) PTE. LTD., priority 2015, dated 2024).

How the values were obtained:
[1] = tested on: TMEM16A; test: TMEM16A mRNA expression by RT-PCR in HBE cells from control or CF patients; type: cell-based, human; details: 100 ng/ml
Procedure: Reverse transcriptase-polymerase chain reaction (RT-PCR). Total RNA extraction and synthesis and PCR of cDNA were done on total lung cells as described (21, 22). Amplification efficiencies were validated and normalized against Gapdh. The thermal profile for SYBR Green real-time PCR was at 95° C. for 3 min, followed by 40 cycles of denaturation for 30 s at 95° C. and an annealing/extension step of 30 s at 60° C. Each data point was examined for integrity by analysis of the amplification plot. The mRNA-normalized data were expressed as relative mRNA in treated cells compared to that of unstimulated cells.
Pharmacological correction of the ion transport defect by targeting of mutant CFTR, or alternative ion channels that may compensate for CFTR dysfunction, has long been considered as an attractive approach to a causal therapy of CF (37). […] Activation of TMEM16A with pharmacological agents could circumvent the primary defect in CF, irrespective of CFTR genotype (40). […] Based upon these findings, whether TMEM16A expression was induced by Tα1 on HBE cells from control or CF patients has been evaluated. To this purpose cells have been exposed to 100 ng/ml of Tα1 up to 24 hours and assessed TMEM16A mRNA expression by RT-PCR on total RNA from cells.

[2] = target: T1, CFTR (Homo sapiens, UniProt P13569, DEL508-508); test: CFTR protein expression (band C) in HBE cells from CF patients; type: cell-based; details: 100 ng/ml Tα1 for 24 hours, cells from 5 CF patients
T1 construct: endogenous in cells; host or cells: primary HBE cells from lung transplants of CF patients
Procedure: Cells. Cell Lines and Cell Culture—Human bronchial epithelial (HBE) cells, homozygous for the […] mutation and its isogenic wild-type were obtained from lung transplants (CF patients) or lung resections (non-CF patients) (kindly provided by L J Galietta within the Italian Cystic Fibrosis Foundation). Cells were maintained at 37° C. in a humidified incubator in an atmosphere containing 5% CO2, and the experiments were done 5 days after plating (21, 22). Stable lentiviral-based transduction of the parental CFBE41o− cells (ΔF508/ΔF508), originally immortalized and characterized by Dr. D. Gruenert and co-workers (32) with either WT-CFTR or ΔF508-CFTR, was performed by Tranzyme, Inc. (Birmingham, AL). […]
CFTR Immunoblot Analysis. […] LiteAblotPlus chemiluminescence substrate (Euroclone S.p.A.), using ChemiDoc™ XRS+ Imagig system (Bio-Rad Laboratories) and blot quantification was obtained by densitometry image analysis using Image Lab 3.1.1 software (Bio-Rad).
The SV40 transformed CF airway epithelial cell line (CFBE41o−), homozygous for the ΔF508-CFTR mutation, was used (32). […] CFTR bands were quantified by densitometry and expressed as the C/B ratio. […]

T1 sequence (P13569 with tags, fused parts or gaps DEL508-508): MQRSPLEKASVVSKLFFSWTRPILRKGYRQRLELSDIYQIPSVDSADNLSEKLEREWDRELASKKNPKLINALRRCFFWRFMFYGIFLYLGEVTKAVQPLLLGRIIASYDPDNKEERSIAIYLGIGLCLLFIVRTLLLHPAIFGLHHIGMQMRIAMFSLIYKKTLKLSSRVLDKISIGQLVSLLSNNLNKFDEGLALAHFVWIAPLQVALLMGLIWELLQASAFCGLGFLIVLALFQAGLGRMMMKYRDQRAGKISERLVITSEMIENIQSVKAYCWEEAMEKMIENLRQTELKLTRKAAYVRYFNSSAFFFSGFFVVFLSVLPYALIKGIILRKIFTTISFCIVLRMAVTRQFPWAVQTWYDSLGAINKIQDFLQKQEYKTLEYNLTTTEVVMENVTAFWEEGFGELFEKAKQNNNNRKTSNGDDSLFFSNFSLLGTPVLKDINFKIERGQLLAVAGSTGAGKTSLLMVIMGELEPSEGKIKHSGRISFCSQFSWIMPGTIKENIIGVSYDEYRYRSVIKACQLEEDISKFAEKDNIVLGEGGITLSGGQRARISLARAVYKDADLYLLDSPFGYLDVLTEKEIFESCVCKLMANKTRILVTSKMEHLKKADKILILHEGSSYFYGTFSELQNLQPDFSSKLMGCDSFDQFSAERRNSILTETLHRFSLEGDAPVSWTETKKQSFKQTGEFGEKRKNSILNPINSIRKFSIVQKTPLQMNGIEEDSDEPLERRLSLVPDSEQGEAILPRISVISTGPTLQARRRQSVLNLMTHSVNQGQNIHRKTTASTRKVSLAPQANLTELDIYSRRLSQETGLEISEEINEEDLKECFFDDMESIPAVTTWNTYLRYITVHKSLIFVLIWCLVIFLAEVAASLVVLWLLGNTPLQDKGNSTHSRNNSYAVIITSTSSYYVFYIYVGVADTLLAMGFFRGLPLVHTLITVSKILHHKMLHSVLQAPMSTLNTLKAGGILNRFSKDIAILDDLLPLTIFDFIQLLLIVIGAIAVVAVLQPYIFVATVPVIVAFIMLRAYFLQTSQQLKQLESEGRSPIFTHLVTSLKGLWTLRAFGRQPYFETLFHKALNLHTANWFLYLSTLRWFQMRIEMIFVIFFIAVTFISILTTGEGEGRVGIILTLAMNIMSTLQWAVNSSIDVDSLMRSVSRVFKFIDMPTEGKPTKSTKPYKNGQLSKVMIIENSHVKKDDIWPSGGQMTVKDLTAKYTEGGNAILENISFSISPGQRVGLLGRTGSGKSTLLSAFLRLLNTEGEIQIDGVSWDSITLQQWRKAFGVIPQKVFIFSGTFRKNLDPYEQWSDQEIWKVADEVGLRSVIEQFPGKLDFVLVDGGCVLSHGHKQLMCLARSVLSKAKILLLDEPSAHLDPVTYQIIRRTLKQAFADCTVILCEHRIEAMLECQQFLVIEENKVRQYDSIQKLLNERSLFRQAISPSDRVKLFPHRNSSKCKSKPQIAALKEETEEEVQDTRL

**Q.** What does the source list for “Ac-Ser-Asp-Ala-Ala-Val-Asp-Thr-Ser-Ser-Glu-Ile-Thr-Thr-Lys-Asp-Leu-Lys-Glu-Lys-Lys-Glu-Val-Val-Glu-Glu-Ala-Glu-Asn-O (Ac-SDAAVDTSSEITTKDLKEKKEVVEEAEN-OH; not fully specified; printed as Ac-Ser-Asp-Ala-Ala-Val-Asp-Thr-Ser-Ser-Glu-Ile-Thr-Thr-Lys-Asp-Leu-Lys-Glu-Lys-Lys-Glu-Val-Val-Glu-Glu-Ala-Glu-Asn-O; listed as Homo sapiens) [Tα1, naturally occurring polypeptide of 28 amino acid; supplied as purified sterile, lyophilized, acetylated polypeptide]”?
**A.** TMEM16A expression ([1]; CF HBE cells, after 4 hours): markedly increased; TMEM16A expression ([1]; CF HBE cells, at 24 hours): remains elevated; TMEM16A expression ([1]; control HBE cells, after 4 hours): markedly increased; TMEM16A expression ([1]; control HBE cells, at 24 hours): returned to baseline levels; CF patients whose HBE cells showed increased expression of CFTR (band C) [2]: 3 patients
